Results from ChEMBL document CHEMBL4004838, “Design and synthesis of novel phenyl -1, 4-beta-carboline-hybrid molecules as potential anticancer agents” (Eur J Med Chem, 2017).

These compounds were tested on SK-MEL-5 (assay: Growth inhibition of human SK-MEL-5 cells assessed as cell growth at 10^-5 M incubated for 48 hrs by sulforhodamine B assay relative to control). Conditions: SK-MEL-5, 48 h, read-out: Activity.
Format: functional

Compound	growth at 10 µM [%]
Cc1ccc(S(=O)(=O)N2CCc3c([nH]c4ccccc34)C2c2ccc(C=O)cc2)cc1 (configuration not stated)	89.8

These compounds were tested on RXF 393 (assay: Growth inhibition of human RXF393 cells assessed as cell growth at 10^-5 M incubated for 48 hrs by sulforhodamine B assay relative to control). Conditions: RXF 393, 48 h, read-out: Activity.
Format: functional

Compound	growth at 10 µM [%]
Cc1ccc(S(=O)(=O)N2CCc3c([nH]c4ccccc34)C2c2ccc(C=O)cc2)cc1 (configuration not stated)	96.4

Each compound was assayed on SW-620 (assay: Growth inhibition of human SW620 cells assessed as cell growth at 10^-5 M incubated for 48 hrs by sulforhodamine B assay relative to control). Conditions: SW-620, 48 h, read-out: Activity.
Format: functional

Compound	growth at 10 µM [%]
Cc1ccc(S(=O)(=O)N2CCc3c([nH]c4ccccc34)C2c2ccc(C=O)cc2)cc1 (configuration not stated)	90.1

These compounds were tested on IGROV-1 (assay: Growth inhibition of human IGROV1 cells assessed as cell growth at 10^-5 M incubated for 48 hrs by sulforhodamine B assay relative to control). Conditions: IGROV-1, 48 h, read-out: Activity.
Format: functional

Compound	growth at 10 µM [%]
Cc1ccc(S(=O)(=O)N2CCc3c([nH]c4ccccc34)C2c2ccc(C=O)cc2)cc1 (configuration not stated)	86.5

What follows are compounds tested on SK-OV-3 (assay: Growth inhibition of human SKOV3 cells assessed as cell growth at 10^-5 M incubated for 48 hrs by sulforhodamine B assay relative to control). Conditions: SK-OV-3, 48 h, read-out: Activity.
Format: functional

Compound	growth at 10 µM [%]
Cc1ccc(S(=O)(=O)N2CCc3c([nH]c4ccccc34)C2c2ccc(C=O)cc2)cc1 (configuration not stated)	88.5

These compounds were tested on UACC-257 (assay: Growth inhibition of human UACC257 cells assessed as cell growth at 10^-5 M incubated for 48 hrs by sulforhodamine B assay relative to control). Conditions: UACC-257, 48 h, read-out: Activity.
Format: functional

Compound	growth at 10 µM [%]
Cc1ccc(S(=O)(=O)N2CCc3c([nH]c4ccccc34)C2c2ccc(C=O)cc2)cc1 (configuration not stated)	102

Each compound was assayed on SK-MEL-28 (assay: Growth inhibition of human SK-MEL-28 cells assessed as cell growth at 10^-5 M incubated for 48 hrs by sulforhodamine B assay relative to control). Conditions: SK-MEL-28, 48 h, read-out: Activity.
Format: functional

Compound	growth at 10 µM [%]
Cc1ccc(S(=O)(=O)N2CCc3c([nH]c4ccccc34)C2c2ccc(C=O)cc2)cc1 (configuration not stated)	86

The compounds below were run on PC-3 (assay: Growth inhibition of human PC3 cells assessed as cell growth at 10^-5 M incubated for 48 hrs by sulforhodamine B assay relative to control). Conditions: PC-3, 48 h, read-out: Activity.
Format: functional

Compound	growth at 10 µM [%]
Cc1ccc(S(=O)(=O)N2CCc3c([nH]c4ccccc34)C2c2ccc(C=O)cc2)cc1 (configuration not stated)	84.2

What follows are compounds tested on NCI-H522 (assay: Growth inhibition of human NCI-H522 cells assessed as cell growth at 10^-5 M incubated for 48 hrs by sulforhodamine B assay relative to control). Conditions: NCI-H522, 48 h, read-out: Activity.
Format: functional

Compound	growth at 10 µM [%]
Cc1ccc(S(=O)(=O)N2CCc3c([nH]c4ccccc34)C2c2ccc(C=O)cc2)cc1 (configuration not stated)	60.3

The compounds below were run on CAKI-1 (assay: Growth inhibition of human Caki1 cells assessed as cell growth at 10^-5 M incubated for 48 hrs by sulforhodamine B assay relative to control). Conditions: CAKI-1, 48 h, read-out: Activity.
Format: functional

Compound	growth at 10 µM [%]
Cc1ccc(S(=O)(=O)N2CCc3c([nH]c4ccccc34)C2c2ccc(C=O)cc2)cc1 (configuration not stated)	73.5

What follows are compounds tested on A549 (assay: Growth inhibition of human A549/ATCC cells assessed as cell growth at 10^-5 M incubated for 48 hrs by sulforhodamine B assay relative to control). Conditions: A549, 48 h, read-out: Activity.
Format: functional

Compound	growth at 10 µM [%]
Cc1ccc(S(=O)(=O)N2CCc3c([nH]c4ccccc34)C2c2ccc(C=O)cc2)cc1 (configuration not stated)	92.8

Each compound was assayed on M14 (assay: Growth inhibition of human M14 cells assessed as cell growth at 10^-5 M incubated for 48 hrs by sulforhodamine B assay relative to control). Conditions: M14, 48 h, read-out: Activity.
Format: functional

Compound	growth at 10 µM [%]
Cc1ccc(S(=O)(=O)N2CCc3c([nH]c4ccccc34)C2c2ccc(C=O)cc2)cc1 (configuration not stated)	85.8

These compounds were tested on KM12 (assay: Growth inhibition of human KM12 cells assessed as cell growth at 10^-5 M incubated for 48 hrs by sulforhodamine B assay relative to control). Conditions: KM12, 48 h, read-out: Activity.
Format: functional

Compound	growth at 10 µM [%]
Cc1ccc(S(=O)(=O)N2CCc3c([nH]c4ccccc34)C2c2ccc(C=O)cc2)cc1 (configuration not stated)	86.8

What follows are compounds tested on SNB-19 (assay: Growth inhibition of human SNB19 cells assessed as cell growth at 10^-5 M incubated for 48 hrs by sulforhodamine B assay relative to control). Conditions: SNB-19, 48 h, read-out: Activity.
Format: functional

Compound	growth at 10 µM [%]
Cc1ccc(S(=O)(=O)N2CCc3c([nH]c4ccccc34)C2c2ccc(C=O)cc2)cc1 (configuration not stated)	91.3

The compounds below were run on SF-268 (assay: Growth inhibition of human SF268 cells assessed as cell growth at 10^-5 M incubated for 48 hrs by sulforhodamine B assay relative to control). Conditions: SF-268, 48 h, read-out: Activity.
Format: functional

Compound	growth at 10 µM [%]
Cc1ccc(S(=O)(=O)N2CCc3c([nH]c4ccccc34)C2c2ccc(C=O)cc2)cc1 (configuration not stated)	91.3

The compounds below were run on HOP-62 (assay: Growth inhibition of human HOP62 cells assessed as cell growth at 10^-5 M incubated for 48 hrs by sulforhodamine B assay relative to control). Conditions: HOP-62, 48 h, read-out: Activity.
Format: functional

Compound	growth at 10 µM [%]
Cc1ccc(S(=O)(=O)N2CCc3c([nH]c4ccccc34)C2c2ccc(C=O)cc2)cc1 (configuration not stated)	94.3

Each compound was assayed on MDA-MB-231 (assay: Growth inhibition of human MDA-MB-231 cells assessed as cell growth at 10^-5 M incubated for 48 hrs by sulforhodamine B assay relative to control). Conditions: MDA-MB-231, 48 h, read-out: Activity.
Format: functional

Compound	growth at 10 µM [%]
Cc1ccc(S(=O)(=O)N2CCc3c([nH]c4ccccc34)C2c2ccc(C=O)cc2)cc1 (configuration not stated)	73.4

Each compound was assayed on EKVX (assay: Growth inhibition of human EKVX cells assessed as cell growth at 10^-5 M incubated for 48 hrs by sulforhodamine B assay relative to control). Conditions: read-out: Activity.
Format: functional

Compound	growth at 10 µM [%]
Cc1ccc(S(=O)(=O)N2CCc3c([nH]c4ccccc34)C2c2ccc(C=O)cc2)cc1 (configuration not stated)	87.4

Each compound was assayed on A498 (assay: Growth inhibition of human A498 cells assessed as cell growth at 10^-5 M incubated for 48 hrs by sulforhodamine B assay relative to control). Conditions: A498, 48 h, read-out: Activity.
Format: functional

Compound	growth at 10 µM [%]
Cc1ccc(S(=O)(=O)N2CCc3c([nH]c4ccccc34)C2c2ccc(C=O)cc2)cc1 (configuration not stated)	84.6

These compounds were tested on MCF7 (assay: Growth inhibition of human MCF7 cells assessed as cell growth at 10^-5 M incubated for 48 hrs by sulforhodamine B assay relative to control). Conditions: MCF7, 48 h, read-out: Activity.
Format: functional

Compound	growth at 10 µM [%]
Cc1ccc(S(=O)(=O)N2CCc3c([nH]c4ccccc34)C2c2ccc(C=O)cc2)cc1 (configuration not stated)	92.4

The compounds below were run on HCT-116 (assay: Growth inhibition of human HCT116 cells assessed as cell growth at 10^-5 M incubated for 48 hrs by sulforhodamine B assay relative to control). Conditions: HCT-116, 48 h, read-out: Activity.
Format: functional

Compound	growth at 10 µM [%]
Cc1ccc(S(=O)(=O)N2CCc3c([nH]c4ccccc34)C2c2ccc(C=O)cc2)cc1 (configuration not stated)	88.3

These compounds were tested on SF-539 (assay: Growth inhibition of human SF539 cells assessed as cell growth at 10^-5 M incubated for 48 hrs by sulforhodamine B assay relative to control). Conditions: SF-539, 48 h, read-out: Activity.
Format: functional

Compound	growth at 10 µM [%]
Cc1ccc(S(=O)(=O)N2CCc3c([nH]c4ccccc34)C2c2ccc(C=O)cc2)cc1 (configuration not stated)	90.2

Each compound was assayed on SF-295 (assay: Growth inhibition of human SF295 cells assessed as cell growth at 10^-5 M incubated for 48 hrs by sulforhodamine B assay relative to control). Conditions: SF-295, 48 h, read-out: Activity.
Format: functional

Compound	growth at 10 µM [%]
Cc1ccc(S(=O)(=O)N2CCc3c([nH]c4ccccc34)C2c2ccc(C=O)cc2)cc1 (configuration not stated)	91.9

The compounds below were run on NCI-H460 (assay: Growth inhibition of human NCI-H460 cells assessed as cell growth at 10^-5 M incubated for 48 hrs by sulforhodamine B assay relative to control). Conditions: NCI-H460, 48 h, read-out: Activity.
Format: functional

Compound	growth at 10 µM [%]
Cc1ccc(S(=O)(=O)N2CCc3c([nH]c4ccccc34)C2c2ccc(C=O)cc2)cc1 (configuration not stated)	93

The compounds below were run on OVCAR-8 (assay: Growth inhibition of human OVCAR8 cells assessed as cell growth at 10^-5 M incubated for 48 hrs by sulforhodamine B assay relative to control). Conditions: OVCAR-8, 48 h, read-out: Activity.
Format: functional

Compound	growth at 10 µM [%]
Cc1ccc(S(=O)(=O)N2CCc3c([nH]c4ccccc34)C2c2ccc(C=O)cc2)cc1 (configuration not stated)	98.2

The compounds below were run on SN12C (assay: Growth inhibition of human SN12C cells assessed as cell growth at 10^-5 M incubated for 48 hrs by sulforhodamine B assay relative to control). Conditions: read-out: Activity.
Format: functional

Compound	growth at 10 µM [%]
Cc1ccc(S(=O)(=O)N2CCc3c([nH]c4ccccc34)C2c2ccc(C=O)cc2)cc1 (configuration not stated)	87.7

The compounds below were run on RPMI-8226 (assay: Growth inhibition of human RPMI8226 cells assessed as cell growth at 10^-5 M incubated for 48 hrs by sulforhodamine B assay relative to control). Conditions: RPMI-8226, 48 h, read-out: Activity.
Format: functional

Compound	growth at 10 µM [%]
Cc1ccc(S(=O)(=O)N2CCc3c([nH]c4ccccc34)C2c2ccc(C=O)cc2)cc1 (configuration not stated)	99.1
